The values below come from publication PMC6325219, “Preclinical Characterization of NVR 3-778, a First-in-Class Capsid Assembly Modulator against Hepatitis B Virus” (Antimicrobial Agents and Chemotherapy, 2018).

Each structure is given as a SMILES string. Read-outs that look alike come from different tables or passages of the source.

In one data set the test system is β-actin mRNA. The experiment in a line: Host β-actin mRNA in PHH during de novo infection study. Type of data set: cell-based, human. As to conditions: 11 days, highest concentration tested 30 μM. The procedure:
Cryopreserved PHH (Life Technologies) were seeded at 40,000 cells/well 1 day before infection. The HBV inoculum, concentrated from the supernatants of HepG2.2.15 cells, was prepared at 200 genome equivalents/cell in PHH medium (DMEM containing 10% FBS and a supplement cocktail containing HEPES, L-proline, insulin epidermal growth factor, dexamethasone, and ascorbic acid-2-phosphate, as previously described) with 2% DMSO and 4% polyethylene glycol (PEG) 8000 (Sigma). Compounds were serially diluted in DMSO at 50-fold strength and added to PHH medium containing the HBV inoculum, prior to infecting the PHH. After overnight incubation, the infection mixtures were removed and the cells were replenished with PHH medium containing freshly diluted compounds. On day 5 and day 8 postinfection, the media containing the compounds were removed and the cells were replenished with PHH medium containing freshly diluted compounds. […] HBV DNA, HBsAg, and HBeAg were determined from the supernatants of infected PHH using bDNA assays (Affymetrix) and HBsAg or HBeAg chemiluminescence immunoassay kits (Autobio), as recommended by the manufacturers. Intracellular total HBV RNA mRNA and host mRNA levels were monitored by using the QuantiGene assays (Affymetrix) and probe sets that hybridized to the X region, which is common to all HBV transcripts, and the host β-actin mRNA, respectively.

Data set [1] is described as follows: Cell viability of HepG2.2.15 cells (ATP levels, CellTiter-Glo). Type of data set: cell-based. The settings on record: human, HepG2.2.15 cells, ATP levels, CellTiter-Glo. The protocol:
In combination studies, cells were treated with compounds either alone or in combination after combining the compounds in a checkerboard format. In studies examining the effect of human serum, serially diluted NVR 3-778 was added into cell culture medium containing 0% to 40% human serum (BioreclamationIVT). Cells were incubated with the compounds for 3 days, after which the medium was removed, fresh medium containing the compounds was added to the cells, and the cells were incubated for another 3 days prior to harvesting of the supernatants or cells for antiviral assays. To quantify intracellular encapsidated rcDNA or encapsidated pgRNA, cells were first solubilized using lysis buffer containing 1% NP-40 and 10 mM CaCl2. The cytoplasmic fraction was then treated with S7 nuclease (6 units) to remove nonencapsidated nucleic acids, after which the S7 nuclease was inactivated by the addition of EDTA (0.5 M). […] The levels of HBV DNA were determined by a bDNA assay as described above (Affymetrix). Supernatants or cell lysates containing HBV RNA were treated with proteinase K (2.5 µg) at 50°C for 40 min, transferred to a capture plate containing HBV RNA probe sets, and hybridized overnight at 55°C. Captured HBV RNA was measured by the addition of a chemiluminescent substrate using a QuantiGene assay (Affymetrix). […] At day 6, the CellTiter-Glo reagent was added to the cells and viability was determined according to the manufacturer’s protocol (Promega). Luminescence signals were measured at 0.2 s using a Victor X4 multimode plate reader (PerkinElmer).
(In general: In ATP-based viability assays light output follows the ATP content of the culture.)

A further data set deals with HBV GT G. The experiment in a line: Transient-transfection antiviral study in HepG2 cells, GT G. Type of data set: cell-based. As to conditions: Hepatitis B virus, HepG2, 72 h, read-out: EC50 (mean), HBV GT G.
The nature of data set [2]: Oral bioavailability and pharmacokinetics in beagle dogs. As to conditions: for AUC(0-inf): read-out: AUC0–inf (mean). The class given is in vivo. The procedure:
After a 7-day washout period, the same two dogs were administered NVR 3-778 by a single oral gavage of the same formulation at 1.5 mg/kg. Blood samples were collected at 0 (predose), 2 min (for the i.v. group only), 5 min, 15 min, and 0.5, 1, 3, 6, 9, and 24 h postdose. The concentration of NVR 3-778 in plasma samples was determined using LC-MS/MS methods.

Data set [3] in a line: Hepatocyte stability, mouse hepatocytes. As to conditions: 120 min incubation. Type of data set: in vitro ADME. The protocol:
(§1) Following in vitro incubation for 120 min with human, mouse, or dog hepatocytes, >85% of the NVR 3-778 remained intact. […] The fewest number of metabolites was found following incubation with human hepatocytes, where 92% of the NVR 3-778 remained after a 120-min incubation.

Data set [4] in a line: Hepatocyte stability, dog hepatocytes. As to conditions: 120 min incubation. Type of data set: in vitro ADME. The protocol: as §1
The target in data set [5] is T1, recombinant HBV core protein (Hepatitis B virus genotype D subtype ayw, UniProt P03146).
T1 construct: Electron microscopy with HBV capsid formed from recombinant HBV core protein was performed as described previously ([5])
In words: Capsid assembly of recombinant core protein, electron microscopy. The class given is biochemical. The settings on record: 1.2:1 compound-to-core monomer ratio, 0.15 M NaCl, room temperature overnight. The protocol:
FIG 1 NVR 3-778 targets HBV core protein and inhibits viral replication. (A) Chemical structure of NVR 3-778. (B) Purified recombinant HBV core protein in the absence or presence of NVR 3-778. NVR 3-778 was incubated with recombinant core protein (1.2:1 compound-to-core monomer ratio) in buffer containing 0.15 M NaCl at room temperature overnight prior to staining and imaging by electron microscopy. (C, D) The effect of NVR 3-778 on intracellular rcDNA, extracellular HBV DNA, or cell viability (C) or on intracellular encapsidated pgRNA- or extracellular HBV RNA-containing particles (D) was determined upon treating HepG2.2.15 cells with increasing concentrations of NVR 3-778. (E, F) The effect of TFV on intracellular rcDNA, extracellular HBV DNA, or cell viability (E) or on intracellular encapsidated pgRNA- or extracellular HBV RNA-containing particles (F) was determined upon treating HepG2.2.15 cells with increasing concentrations of TFV. Secreted HBV DNA and secreted HBV RNA levels were determined from the supernatant of HepG2.2.15 cells. Intracellular encapsidated rcDNA and pgRNA levels were determined upon NP-40 lysis of cells and by using S7 nuclease to remove nonencapsidated nucleic acids. Cell viability was determined by measuring ATP levels using the CellTiter-Glo assay. […]

A further data set has as its system HBV. Also on record: method as in PMID 30181376. The settings on record: metabolically active primary human hepatocytes; cited from earlier work.
The mark [6] stands for this setting: dog, plasma, iv, single i.v. 0.5 mg/kg, two male beagle dogs.
Where [7] appears, read: dog, plasma, single oral gavage 1.5 mg/kg, two male beagle dogs.

T1 sequence (P03146 1-149): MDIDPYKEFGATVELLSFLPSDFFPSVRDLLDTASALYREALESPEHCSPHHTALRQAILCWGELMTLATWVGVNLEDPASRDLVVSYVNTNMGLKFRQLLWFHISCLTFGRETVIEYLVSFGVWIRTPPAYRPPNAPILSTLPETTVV
Experimental for HBV GT G: Cells were cotransfected with the HBV plasmids (100 ng/well) and a Gaussia expression plasmid (10 ng/well) (Thermo Scientific) using the Lipofectamine LTX Plus transfection reagent (Life Technologies). Transfection mixtures were removed after overnight incubation, and cells were treated with serially diluted NVR 3-778 at a final dimethyl sulfoxide (DMSO) concentration of 0.5%. After 3 days of incubation with the compound, the supernatants were collected and secreted Gaussia luciferase was measured using a Gaussia Flash luciferase assay kit (Thermo Scientific). […] Samples were diluted into lysis buffer (Affymetrix) containing 2.5 µg proteinase K (Affymetrix) at 50°C for 40 min. Intracellular encapsidated HBV DNA was denatured for 30 min at 25°C in 0.2 M NaOH (Sigma) and incubated with HBV DNA probes designed to hybridize to the minus-strand HBV DNA (Affymetrix). The denatured DNA was subsequently detected using a QuantiGene assay kit, according to the branched DNA (bDNA) assay recommended by the manufacturer (Affymetrix).

Turning to `Nc1ccn([C@@H]2CS[C@H](CO)O2)c(=O)n1` [LMV, lamivudine, reference compound], in the data set on β-actin mRNA, the “CC50 (EC50), β-actin mRNA” value is greater than 30 µM and the “CC90 (EC90 column), β-actin mRNA” value was greater than 30 µM.
As usually defined, the CC50 is the concentration at which the toxic effect on the cells reaches its halfway point. The EC50 is the concentration needed to bring the measured effect to its halfway point. As usually defined, the half-life is the time needed for the level to fall by half in the phase considered. One may read the Cmax as the highest concentration seen after dosing. As usually defined, the bioavailability is the share of a dose that reaches the circulation, judged against a reference dose that is usually intravenous. Lower therefore signals little systemic uptake. Turning to `O=C(Nc1cc(F)c(F)c(F)c1)c1ccc(F)c(S(=O)(=O)N2CCC(O)CC2)c1` [NVR 3-778], the CC50 at 6 days in data set [1] stood at 14.5 µM. Besides, the EC50 in the data set on HBV GT G was 0.25 µM. For the same compound, the clearance in data set [2] (setting [6]) came out at 6.1 mL/min/kg. For the same compound, the values for the AUC(0-inf) in data set [2] (setting [6]) and in data set [2] (setting [7]) were 1380 ng·h/mL and 3500 ng·h/mL, respectively. The half-life in data set [2] (dog, plasma, iv, single i.v. 0.5 mg/kg, two male beagle dogs, read-out: Mean terminal half-life (converted)) is 4.1 h. In addition, the Vd in data set [2] (dog, plasma, iv, single i.v. 0.5 mg/kg, two male beagle dogs, read-out: Volume of distribution at steady state (Vss) (mean)) was 1.7 L/kg. In data set [2] (setting [7]), the peak level (Cmax) was 560 ng/mL. The “Circulating species in plasma” value in data set [2] (dogs, oral gavage) is listed as “predominant circulating molecule”. The same compound gave a bioavailability in data set [2] (male, dog, plasma, oral 1.5 mg/kg versus i.v. 0.5 mg/kg, beagle dogs) of 84.6%. Besides, the “NVR 3-778 remaining intact” value in data set [3] and in data set [4] was greater than 85% throughout. In addition, in data set [5], the “Effect on assembly of purified recombinant core protein” value is on record as “effectively induced the formation of capsid-like particles”. Besides, the “Increase in EC50 against HBV DNA replication in the presence of serum proteins” value in the data set on HBV is “about 4 fold”.
